# Assay results: PubChem BioAssay AID1918996 (Molecular Pharmacology Branch, DTP, NCI, 2023)
# Tested on: 349418-098-R-PDC complex spheroid growth
# Experiment: Anticancer human tumor 349418-098-R-PDC patient-derived lung adenocarcinoma cell line growth inhibition [AhR]
# Details: for IC50: curve of first compound; for viability, T/C: stronger effect = lower value
# Source text: Multicellular complex tumor spheroid response to aryl hydrocarbon receptor antagonists in combination with a variety of drugs and investigational agents in selected tumor cell lines
# The current study was undertaken to assess response to aryl hydrocarbon receptor antagonists in combination with standard-of-care drugs and investigational agents in solid tumor complex spheroid models. Complex spheroids include a stromal component modeled by human endothelial cells (HUVEC) and fibroblasts modeled by human mesenchymal stem cells (MSCs). The concentration ranges selected for each drug and investigational agent were based upon clinically achievable concentrations if the clinical Cmax of the agent was known.
# Compounds. The drugs and investigational agents: BAY 2416964 (NSC825713), GNF351 (NSC835774), CH-223191 (NSC835775), CPI-455 (NSC825282), aza-TdCyd (NSC777586), decitabine (NSC127716), belinostat (NSC758774), entinostat (NSC756642), pevonedistat (NSC761192), tazemetostat (NSC777109), talazoparib (NSC765396), olaparib (NSC753686), selinexor (NSC780203), nedisertib (M3814, NSC802822), bortezomib (NSC756655), venetoclax (NSC766270), doxorubicin (NSC123127), elimusertib (BAY189344, NSC800525), ceralasertib (AZD6738, NSC777638), TAK-243 (NSC785004), alisertib (NSC759677), etoposide (NSC141540), topotecan (NSC609699), eribulin (NSC707389), gemcitabine (NSC613327), carboplatin (NSC241240), cisplatin (NSC119875), and SN-38 (NSC673596) were obtained from the National Cancer Institute (NCI) Developmental Therapeutics Program Chemical Repository (32). The FDA-approved anticancer drug set is available from the Developmental Therapeutics Program at https://dtp.cancer.gov/organization/dscb/obtaining/available plates.htm. […] The stock solutions were prepared in dimethyl sulfoxide (DMSO, Sigma-Aldrich, St. Louis, MO, cat. D2650), except for the platinum compounds which were prepared in saline (Quality Biological, Gaithersburg, MD, cat. 114-055-101), at 800-fold the tested concentration and stored at -70 degrees C prior to their use. All drugs and investigational agents were tested over a range starting from a high concentration at or near the clinical Cmax and decreasing in half-log increments. If the clinical Cmax for an agent had not been determined, the highest concentration tested was 10 microM (Table 1).
# Cell Culture. All cells were maintained in an incubator at 37 degrees C and 5% CO2 with 95% humidity. The PDC lines were cultured according to standard operating procedures established by the NCI PDMR (https://pdmr.cancer.gov). Briefly, all PDCs were thawed and cultured in Matrigel-coated flasks prepared with a working solution of 1X Ham's F-12 nutrient mix, without supplementation (Invitrogen, Waltham, MA, cat. 11765054), 100 U/mL penicillin-streptomycin (Invitrogen, cat. 15140122), and 2.5% Matrigel (Corning Inc., Corning, NY, cat. 354248) for the first three passages. All PDCs were cultured in complete DMEM/F-12 media containing advanced DMEM/F-12 (Invitrogen, cat. 12634028), 4.9% defined fetal bovine serum, heat inactivated (HyClone Laboratories Inc., Logan, UT, cat. SH30070.03HI), 389 ng/mL hydrocortisone (Sigma-Aldrich, cat. H4001), 9.7 ng/mL human EGF recombinant protein (Invitrogen, cat. PHG0313), 23.4 microg/mL adenine (Sigma-Aldrich, cat. A2786), 97.3 U/mL penicillin-streptomycin (Invitrogen, cat. 15140122), 1.9 mM L-glutamine (Invitrogen, cat. 25030081), and 9.7 microM Y-27632 dihydrochloride (Tocris Bioscience, Bristol, United Kingdom, cat. 1254). The PDCs were cultured in complete DMEM/F12 media without 10 microM Y-27632 dihydrochloride for at least two passages prior to the screen. The established cell lines NCI-H1341 and […] were cultured in DMEM/F-12, HEPES (Invitrogen, cat. 11330032), 5% defined fetal bovine serum (HyClone Laboratories Inc., cat. SH30070.03), ITS premix universal culture supplement [insulin (5 microg/mL), transferrin (5 microg/mL), and selenious acid (5 ng/mL)] […]
# 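Note: spheroids exposed to agents for seven days before luminescence viability read.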
# 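Throughout, for viability, T/C: spheroids also contain HUVEC endothelial cells and human MSC stroma.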
smiles,measurement,setting,value
CCc1c2c(nc3ccc(O)cc13)-c1cc3c(c(=O)n1C2)COC(=O)[C@]3(O)CC + CC(CO)NC(=O)c1cc(-c2ccc(Cl)cc2)nn(-c2cnn(C)c2)c1=O,IC50,second compound 0.1 µM,< 949 pM
same,IC50,second compound 0.316 µM,< 949 pM
same,IC50,second compound 1 µM,< 949 pM
same,IC50,second compound 3.16 µM,< 949 pM
same,IC50,second compound 10 µM,< 949 pM
same,"viability, T/C","second compound 0.1 µM, first compound 0.000949 µM",42.1%
same,"viability, T/C","second compound 0.1 µM, first compound 0.003 µM",37.1%
same,"viability, T/C","second compound 0.1 µM, first compound 0.00949 µM",18.3%
same,"viability, T/C","second compound 0.1 µM, first compound 0.03 µM",8.94%
same,"viability, T/C","second compound 0.1 µM, first compound 0.0949 µM",5.8%
same,"viability, T/C","second compound 0.1 µM, first compound 0.3 µM",3.72%
same,"viability, T/C","second compound 0.316 µM, first compound 0.000949 µM",34.2%
same,"viability, T/C","second compound 0.316 µM, first compound 0.003 µM",30.5%
same,"viability, T/C","second compound 0.316 µM, first compound 0.00949 µM",13.1%
same,"viability, T/C","second compound 0.316 µM, first compound 0.03 µM",7.93%
same,"viability, T/C","second compound 0.316 µM, first compound 0.0949 µM",5.5%
same,"viability, T/C","second compound 0.316 µM, first compound 0.3 µM",4.2%
same,"viability, T/C","second compound 1 µM, first compound 0.000949 µM",33.9%
same,"viability, T/C","second compound 1 µM, first compound 0.003 µM",21%
same,"viability, T/C","second compound 1 µM, first compound 0.00949 µM",14.2%
same,"viability, T/C","second compound 1 µM, first compound 0.03 µM",9.54%
same,"viability, T/C","second compound 1 µM, first compound 0.0949 µM",8.88%
same,"viability, T/C","second compound 1 µM, first compound 0.3 µM",4.3%
same,"viability, T/C","second compound 3.16 µM, first compound 0.000949 µM",22.4%
same,"viability, T/C","second compound 3.16 µM, first compound 0.003 µM",18.9%
same,"viability, T/C","second compound 3.16 µM, first compound 0.00949 µM",13%
same,"viability, T/C","second compound 3.16 µM, first compound 0.03 µM",7.97%
same,"viability, T/C","second compound 3.16 µM, first compound 0.0949 µM",6.24%
same,"viability, T/C","second compound 3.16 µM, first compound 0.3 µM",4.5%
same,"viability, T/C","second compound 10 µM, first compound 0.000949 µM",20.1%
same,"viability, T/C","second compound 10 µM, first compound 0.003 µM",17.4%
same,"viability, T/C","second compound 10 µM, first compound 0.00949 µM",12.2%
same,"viability, T/C","second compound 10 µM, first compound 0.03 µM",8.79%
same,"viability, T/C","second compound 10 µM, first compound 0.0949 µM",6.32%
same,"viability, T/C","second compound 10 µM, first compound 0.3 µM",5.7%
